Reference: ChEMBL document CHEMBL1201862, “PubChem BioAssay data set” (2004)
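Interpolation was linear, between the two tested concentrations surrounding the appropriate level; five concentrations were tested over 48 hours in 96-well plates. GI50 marks 50% less growth.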 Active and inactive are the calls of the source. Cut-off read from the data, not from the text of the source: active = GI50 up to about 1.1 µM and inactive = higher.

Legend:
Assay in all cases: NCI anticancer screen, dose series, 48 h
PC-3 = test system: PC-3
U-251 = test system: U-251
CCRF-CEM = test system: CCRF-CEM
T47D = test system: T47D
HOP-92 = test system: HOP-92
RPMI-8226 = test system: RPMI-8226
NCI/ADR-RES = test system: NCI/ADR-RES
786-0 = test system: 786-0
CAKI-1 = test system: CAKI-1
SNB-19 = test system: SNB-19
Hs-578T = test system: Hs-578T
NCI-H522 = test system: NCI-H522
HT-29 = test system: HT-29
HCT-116 = test system: HCT-116
SR = test system: SR
MDA-N = test system: MDA-N
Malme-3M = test system: Malme-3M
UACC-62 = test system: UACC-62

Measured: GI50

CN(C)C(=O)OC(Cn1cncn1)(Cn1cncn1)c1ccc(Cl)cc1Cl
inactive: PC-3 > 100 µM | U-251 > 100 µM | CCRF-CEM > 100 µM | T47D > 100 µM | HOP-92 > 100 µM | RPMI-8226 > 100 µM | NCI/ADR-RES > 100 µM | 786-0 > 100 µM | CAKI-1 > 100 µM | SNB-19 > 100 µM | Hs-578T > 100 µM | NCI-H522 > 100 µM | HT-29 > 100 µM

COC(CN(C(=O)c1ccccc1)C1CCC2(SCCS2)c2[nH]c3ccccc3c21)OC (stereo not given)
inactive: PC-3 18.2 µM | HCT-116 32.3 µM | U-251 25.9 µM | CCRF-CEM 44.2 µM | SR 30.4 µM | MDA-N 12.9 µM | HOP-92 7.24 µM | RPMI-8226 29.6 µM | NCI/ADR-RES 18.1 µM | 786-0 37 µM | CAKI-1 21 µM | SNB-19 22.4 µM | Malme-3M 25.2 µM | Hs-578T 75.2 µM | NCI-H522 13.9 µM | HT-29 37.3 µM

CCc1nnc(CC)n1-n1c(Cc2ccccc2)n[nH]c1=O
inactive: PC-3 > 100 µM | HCT-116 > 100 µM | U-251 > 100 µM | CCRF-CEM > 100 µM | SR > 100 µM | MDA-N > 100 µM | HOP-92 > 100 µM | RPMI-8226 > 100 µM | NCI/ADR-RES > 100 µM | 786-0 > 100 µM | SNB-19 > 100 µM | NCI-H522 > 100 µM | UACC-62 > 100 µM | HT-29 > 100 µM

CNC(=O)c1nnn(Cc2ccccc2)c1S
inactive: PC-3 > 100 µM | HCT-116 > 100 µM | U-251 > 100 µM | CCRF-CEM > 100 µM | T47D > 100 µM | MDA-N > 100 µM | RPMI-8226 > 100 µM | NCI/ADR-RES > 100 µM | 786-0 > 100 µM | CAKI-1 > 100 µM | SNB-19 > 100 µM | UACC-62 > 100 µM | HT-29 > 100 µM

COc1cccc(C=C2N=C(C)N(n3c(-c4ccccc4)nc4ccccc4c3=O)C2=O)c1
inactive: PC-3 > 100 µM | HCT-116 > 100 µM | CCRF-CEM 57.5 µM | T47D > 100 µM | SR 64.9 µM | MDA-N > 100 µM | RPMI-8226 59 µM | 786-0 > 100 µM | CAKI-1 > 100 µM | SNB-19 > 100 µM | Hs-578T > 100 µM | NCI-H522 > 100 µM | UACC-62 > 100 µM | HT-29 > 100 µM

COc1ccc(C23OCC(Cc4cc(OC)c(OC)cc42)C3CO)cc1OC (stereo not given)
inactive: PC-3 > 100 µM | HCT-116 > 100 µM | U-251 > 100 µM | T47D > 100 µM | SR 29.8 µM | RPMI-8226 > 100 µM | NCI/ADR-RES > 100 µM | 786-0 > 100 µM | CAKI-1 > 100 µM | SNB-19 > 100 µM | Malme-3M > 100 µM | NCI-H522 > 100 µM | UACC-62 > 100 µM

C[N+](C)(C)CC(=O)N/N=C(/Cc1nc2c3c(ccc2nc1O)C(=O)c1ccccc1C3=O)C(=O)Nc1ccc(Cl)c(Cl)c1
inactive: HCT-116 43.3 µM | CCRF-CEM 4.16 µM | SR 16 µM | HOP-92 29.6 µM | RPMI-8226 17.4 µM | 786-0 77.6 µM | CAKI-1 15.5 µM | Malme-3M > 100 µM | NCI-H522 22.9 µM | UACC-62 41.6 µM | HT-29 > 100 µM

O=C1O[C@H](c2ccc3c(c2)OCO3)[C@H]2CO[C@@H](c3ccc4c(c3)OCO4)[C@@H]12
inactive: PC-3 > 100 µM | HCT-116 > 100 µM | U-251 > 100 µM | SR 42.7 µM | MDA-N > 100 µM | HOP-92 > 100 µM | RPMI-8226 33.9 µM | NCI/ADR-RES 74.1 µM | 786-0 > 100 µM | CAKI-1 77.8 µM | SNB-19 > 100 µM | Malme-3M > 100 µM | Hs-578T > 100 µM | NCI-H522 94.8 µM | UACC-62 88.5 µM | HT-29 77.6 µM

COc1cc2c(c(OC)c1)/C(=C/Sc1ccccc1)C(=O)N(C(C)(C)C)C2
inactive: PC-3 22.4 µM | HCT-116 16.4 µM | U-251 29.8 µM | CCRF-CEM 29.2 µM | T47D 26.7 µM | SR 19.8 µM | MDA-N 23.5 µM | HOP-92 1.41 µM | RPMI-8226 26.1 µM | NCI/ADR-RES 11.7 µM | 786-0 28.5 µM | CAKI-1 32.7 µM | UACC-62 24.3 µM | HT-29 22.9 µM

CC(O)=NC(Cc1ccc2ccccc2c1)C(O)=NC(Cc1ccc(Cl)cc1)C(O)=NC(Cc1c[nH]c2ccccc12)C(O)=NC(CO)C(O)=NC(Cc1ccc(O)cc1)C(O)=NC(CCCN=C(N)N)C(O)=NC(CC(C)C)C(O)=NC(CCCN=C(N)N)C(=O)N1CCCC1C(O)=NC(C)C(=N)O (stereo not given)
inactive: PC-3 32.3 µM | U-251 31.6 µM | CCRF-CEM > 100 µM | SR > 100 µM | MDA-N 30.4 µM | HOP-92 35.5 µM | RPMI-8226 > 100 µM | NCI/ADR-RES 60.3 µM | 786-0 35.8 µM | CAKI-1 54.7 µM | SNB-19 48.9 µM | Malme-3M 99.5 µM | Hs-578T 47.4 µM | NCI-H522 45.9 µM | UACC-62 45.6 µM | HT-29 35.5 µM
